Test results reported in ChEMBL document CHEMBL5154912, “Penicillin Derivatives Inhibit the SARS-CoV-2 Main Protease by Reaction with Its Nucleophilic Cysteine” (J Med Chem, 2022).
Active and inactive are the calls of the source. The rule behind the calls is not given here.

Legend:
[1] = target: Replicase polyprotein 1ab (Severe acute respiratory syndrome coronavirus 2) (UniProt P0DTD1); assay: Inhibition of recombinant SARS-CoV-2 Main protease at Cys145 residue by covalent modification at 33 uM incubated for 45 mins by MS analysis
[2] = target: Replicase polyprotein 1ab (Severe acute respiratory syndrome coronavirus 2) (UniProt P0DTD1); assay: Inhibition of recombinant SARS-CoV-2 Main protease at Cys145 residue by non-covalent binding incubated for 45 mins by MS analysis
[3] = target: Replicase polyprotein 1ab (Severe acute respiratory syndrome coronavirus 2) (UniProt P0DTD1); assay: Inhibition of recombinant SARS-CoV-2 Main protease at Cys145 residue by covalent modification at 10 uM incubated for 45 mins by SPE-MS analysis
[4] = target: Replicase polyprotein 1ab (Severe acute respiratory syndrome coronavirus 2, UniProt P0DTD1); assay: Inhibition of recombinant SARS-CoV-2 Main protease using ALNDFSNSGSDVLYQPPQTSITSAVLQ/SGFRKMAFPS-NH2 as substrate preincubated for 45 to 75 mins followed by substrate addition measured after 6 mins by SPE-MS inhibition assay

**Q.** For `C#CCOC(=O)[C@@H]1N2C(=O)[C@@H](NC(=O)COc3ccccc3)[C@H]2S(=O)(=O)C1(C)C`, which inhibition [1] is on record?
**A.** Active

**Q.** With `CC1(C)[C@H](C(=O)OCc2ccccc2)N2C(=O)[C@@H](NC(=O)COc3ccccc3)C[C@H]2S1(=O)=O` as the compound, how does the inhibition [2] read?
**A.** Active

**Q.** How did the inhibition [3] turn out when `CC1(C)[C@H](C(=O)OCc2ccccc2)N2C(=O)[C@@H](NC(=O)COc3ccccc3)[C@H]2S1(=O)=O` was run?
**A.** Active

**Q.** With `CC1(C)[C@H](C(=O)OCOc2ccccc2)N2C(=O)[C@@H](NC(=O)COc3ccccc3)[C@H]2S1(=O)=O` as the compound, how does the IC50 [4] read?
**A.** 6.6 µM
